Measured values: PubChem BioAssay AID816 (SRMLSC, 2007)
Activity calls are given as the source filed them. The rule behind the calls is not given here.

System: S. cerevisiae GAL1 promoter reporter activation counterscreen
Assay: GAL1 promoter activators in yeast, artefact control for yeast lifespan extension project, S. cerevisiae (AID 816);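 note: yeast growth read after 24 h of incubation with compounds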

Q: With O=C(NC(=S)NNC(=O)c1ccc(Cl)cc1Cl)c1cccnc1 as the molecule, how does the EC50 read?
A: Its EC50 is > 40 µM (inactive).

Q: With O=C1CC(c2ccccc2)CC(O)=C1C=NCCN1CCN(C(=O)Cc2ccccc2)CC1 (configuration not stated) as the molecule, how does the EC50 read?
A: Its EC50 is > 40 µM (inactive).

Q: For CCn1c(/C=N/c2nc3ccccc3n2C)nc2ccccc21, which EC50 is on record?
A: The EC50 was > 40 µM (inactive).

Q: For Cc1nn(C(C)(C)C)c(OC(=O)c2ccc(Br)o2)c1Sc1ccccc1, which EC50 is on record?
A: Its EC50 is > 40 µM (inactive).

Q: With CN1OC(c2ccccc2)=C(CO)C1c1ccccc1 (configuration not stated) as the molecule, how does the EC50 read?
A: The EC50 was > 40 µM (inactive).

Q: With CCc1ccc(C(=O)CN2C(=O)NC(C)(CCc3ccccc3)C2=O)cc1 (configuration not stated) as the molecule, how does the EC50 read?
A: Its EC50 is > 40 µM (inactive).

Q: CCCCOC(=O)n1c(=O)oc2cc(S(=O)(=O)N3CCCCC3)ccc21 was tested. Which EC50 did it give?
A: The EC50 was > 40 µM (inactive).

Q: How did the EC50 turn out when Cc1ccc(S(=O)(=O)N[C@@H](Cc2ccccc2)C(=O)CCl)cc1 was run?
A: The EC50 was > 40 µM (inactive).

Q: How did the EC50 turn out when CCOC(=O)C(=Cc1ccc(F)cc1)C(=O)OCC was run?
A: The EC50 was > 40 µM (inactive).

Q: How did the EC50 turn out when Cc1ccc(/C=C/C(=O)C2C(=O)c3ccccc3C2=O)cc1 was run?
A: The EC50 was > 40 µM (inactive).

Q: Cc1nc(SC(C)C)[nH]c(=O)c1Cc1ccccc1 was tested. Which EC50 did it give?
A: Its EC50 is > 40 µM (inactive).

Q: With CCOc1cc(Br)c(Br)c(C=Nc2ccc(NC(C)=O)cc2)c1O as the molecule, how does the EC50 read?
A: Its EC50 is > 40 µM (inactive).

Q: O=C(Cn1nc(Cl)nc1Cl)c1cc2ccccc2oc1=O was tested. Which EC50 did it give?
A: The EC50 was > 40 µM (inactive).

Q: With CCOC(=O)CN1C(=O)N[C@H](c2ccc(Br)cc2)C(C(C)=O)=C1C as the molecule, how does the EC50 read?
A: The EC50 was > 40 µM (inactive).

Q: How did the EC50 turn out when CCc1ccc2c(c1)CCCN2C(=O)c1ccccc1C(=O)O was run?
A: Its EC50 is > 40 µM (inactive).

Q: How did the EC50 turn out when Cc1nc2ccccc2n1-c1ccccc1 was run?
A: Its EC50 is > 40 µM (inactive).

Q: How did the EC50 turn out when O=C(Nc1ccc(Br)cn1)c1cccc(-c2cc3ccccc3oc2=O)c1 was run?
A: The EC50 was > 40 µM (inactive).

Q: O=c1c2ccccc2nc(-c2ccc(Cl)c(Cl)c2)n1O was tested. Which EC50 did it give?
A: Its EC50 is > 40 µM (inactive).

Q: With O=c1[nH]c2ccccc2nc1Cc1ccccc1 as the molecule, how does the EC50 read?
A: Its EC50 is > 40 µM (inactive).

Q: How did the EC50 turn out when CC1=CN2C(=N)/C(=C/c3ccc([N+](=O)[O-])o3)C(=O)N=C2S1 was run?
A: The EC50 was > 40 µM (inactive).

Q: With Cc1oc2c(c(=O)c1C)C(=O)CC(c1ccccc1)C2 (configuration not stated) as the molecule, how does the EC50 read?
A: The EC50 was > 40 µM (inactive).

Q: With Cc1cccc(N2C(=O)/C(=C\c3ccc(OC(F)F)cc3)c3ccccc3C2=O)c1 as the molecule, how does the EC50 read?
A: The EC50 was > 40 µM (inactive).

Q: How did the EC50 turn out when CC[n+]1ccc(C[n+]2ccccc2)c2ccccc21 was run?
A: Its EC50 is > 40 µM (inactive).

Q: For CC1(C)Cc2ccccc2-c2nnc(SCC(=O)Nc3ccc4c(c3)OCO4)n21, which EC50 is on record?
A: The EC50 was > 40 µM (inactive).

Q: CCCCn1c(/N=C/c2ccccc2NS(=O)(=O)c2ccc(C)cc2)nc2ccccc21 was tested. Which EC50 did it give?
A: The EC50 was > 40 µM (inactive).

Q: How did the EC50 turn out when Cc1ccnc(N=Cc2c(O)ccc3oc4c(c23)CCCC4)c1 was run?
A: Its EC50 is > 40 µM (inactive).

Q: How did the EC50 turn out when O=C(NCCc1ccccn1)C(F)(F)C(F)(F)C(F)(F)C(F)(F)C(F)(F)C(F)(F)C(F)(F)C(F)F was run?
A: Its EC50 is > 40 µM (inactive).

Q: Which EC50 does the source give for Cn1c(=O)c2c(nc(Br)n2Cc2ccc3ccccc3c2)n(C)c1=O here?
A: The EC50 was > 40 µM (inactive).

Q: For O=C1/C(=N/n2cnnc2)c2ccccc2N1Cc1ccccc1, which EC50 is on record?
A: The EC50 was > 40 µM (inactive).

Q: Which EC50 does the source give for O=C(COc1ccc([N+](=O)[O-])cc1)N(Cc1ccccc1)Cc1ccccc1 here?
A: Its EC50 is > 40 µM (inactive).

Q: For CCc1ccc2nc(N3C(=O)C(O)=C(C(=O)c4ccco4)C3c3cccs3)sc2c1 (configuration not stated), which EC50 is on record?
A: The EC50 was > 40 µM (inactive).

Q: For O=c1c(-c2ccc(Cl)cc2)[n+]([O-])c2ccccc2n1OCc1ccccn1, which EC50 is on record?
A: The EC50 was > 40 µM (inactive).

Q: How did the EC50 turn out when CC1Cc2ccccc2N1C(=O)Cn1cnc2ccccc2c1=O (configuration not stated) was run?
A: The EC50 was > 40 µM (inactive).

Q: For CCOC(=O)c1ccc2c(c1)n(CCO)c(C)[n+]2CC, which EC50 is on record?
A: The EC50 was > 40 µM (inactive).

Q: With CCc1nc(SCC(=O)c2ccc3c(c2)OCCO3)c2ccccc2n1 as the molecule, how does the EC50 read?
A: Its EC50 is > 40 µM (inactive).

Q: For Oc1ccc2ccccc2c1C=Nc1ccccc1-c1nc2ccccc2[nH]1, which EC50 is on record?
A: Its EC50 is > 40 µM (inactive).

Q: How did the EC50 turn out when CCOC(=O)c1c(C)oc2c1c(C(c1cccnc1)N1CCOCC1)c(O)c1ccccc12 (configuration not stated) was run?
A: The EC50 was > 40 µM (inactive).

Q: CC(C)=C1C(=O)NN(c2ccc(C)c(Cl)c2)C1=O was tested. Which EC50 did it give?
A: Its EC50 is > 40 µM (inactive).

Q: Which EC50 does the source give for COc1ccc(NCc2nc3ccccc3n2CCOc2ccccc2)cc1 here?
A: The EC50 was > 40 µM (inactive).

Q: Which EC50 does the source give for CCn1c(=O)c2c(O)cc(=O)oc2c2ccccc21 here?
A: The EC50 was > 40 µM (inactive).

Q: With COCCCNc1c2c3c(cccc3[nH]c1=O)C(=O)c1ccccc1-2 as the molecule, how does the EC50 read?
A: Its EC50 is > 40 µM (inactive).

Q: Which EC50 does the source give for O=S(=O)(Nc1cccc2c1CCCC2)c1ccc(Cl)cc1 here?
A: The EC50 was > 40 µM (inactive).

Q: How did the EC50 turn out when COC(=O)C1=C(C(=O)OC)C(c2ccccc2O)c2sc(=O)[nH]c2S1 (configuration not stated) was run?
A: Its EC50 is > 40 µM (inactive).

Q: Which EC50 does the source give for COc1ccc(CC(=O)Nc2ccc3c(c2)CCC3)cc1S(=O)(=O)N1CCOCC1 here?
A: Its EC50 is > 40 µM (inactive).

Q: Which EC50 does the source give for Cc1ccc(NC(=O)CN2CCN(CCN=CC3=C(O)CC(c4ccccc4)CC3=O)CC2)cc1 (configuration not stated) here?
A: The EC50 was > 40 µM (inactive).

Q: Which EC50 does the source give for O=C(CCl)c1ccc(Cc2ncc(C(F)(F)F)cc2Cl)s1 here?
A: Its EC50 is > 40 µM (inactive).

Q: CNC(=S)NC1CC2CCCC(C1)N2Cc1ccco1 (configuration not stated) was tested. Which EC50 did it give?
A: Its EC50 is > 40 µM (inactive).

Q: Which EC50 does the source give for CNC(=O)/C(C#N)=C/c1c(F)cccc1Cl here?
A: Its EC50 is > 40 µM (inactive).

Q: How did the EC50 turn out when CCOc1ccccc1/C=c1\sc2ncnn2c1=O was run?
A: Its EC50 is > 40 µM (inactive).

Q: CCOc1ccc(/C=C2/C(=O)NC(=O)N(CCc3ccc(F)cc3)C2=O)cc1 was tested. Which EC50 did it give?
A: The EC50 was > 40 µM (inactive).

Q: For O=CN(/C=C1\Sc2ccccc2C1=O)Cc1ccccc1, which EC50 is on record?
A: The EC50 was > 40 µM (inactive).

Q: How did the EC50 turn out when CCc1ccc(CC2S/C(=C(\C#N)C(C)=O)NC2=O)cc1 (configuration not stated) was run?
A: Its EC50 is > 40 µM (inactive).

Q: Which EC50 does the source give for C=C(CC)C(=O)c1ccc(OCC(=O)O)c(Cl)c1Cl here?
A: Its EC50 is > 40 µM (inactive).

Q: Which EC50 does the source give for CSc1ccc(S(=O)(=O)NCc2ccc(Cl)cc2Cl)cc1 here?
A: Its EC50 is > 40 µM (inactive).

Q: For CCCCCCCC(=O)N/N=C(/C)c1c(O)cc(C)oc1=O, which EC50 is on record?
A: Its EC50 is > 40 µM (inactive).

Q: With CCCC[n+]1c(-c2ccc(Cl)cc2Cl)csc1Nc1ccccc1 as the molecule, how does the EC50 read?
A: Its EC50 is > 40 µM (inactive).

Q: For CCCCCCCCn1c(=O)c(C(=O)OCC)c(O)c2ccccc21, which EC50 is on record?
A: Its EC50 is > 40 µM (inactive).

Q: Which EC50 does the source give for CN1CCN(C(=S)Nc2cc([N+](=O)[O-])ccc2Cl)CC1 here?
A: Its EC50 is > 40 µM (inactive).

Q: For C[C@]12CC[C@@H]3c4ccc(O)cc4CC[C@H]3[C@@H]1CC[C@@H]2OC(=O)CCC(=O)O, which EC50 is on record?
A: Its EC50 is > 40 µM (inactive).

Q: With COc1ccc(C(=O)Nc2ccc(OCc3ccccc3)cc2)cc1[N+](=O)[O-] as the molecule, how does the EC50 read?
A: Its EC50 is > 40 µM (inactive).

Q: With COc1ccc2c3c(cccc13)C(=O)N(O)C2=O as the molecule, how does the EC50 read?
A: Its EC50 is > 40 µM (inactive).

Q: Which EC50 does the source give for Cc1cc(C)nc(SCc2cc(=O)c(OC(=O)c3ccc(Br)o3)co2)n1 here?
A: Its EC50 is > 40 µM (inactive).

Q: For Cc1cc(C=C2C(=O)N(C)C(=S)N(C)C2=O)c(C)n1-c1cccnc1, which EC50 is on record?
A: Its EC50 is > 40 µM (inactive).

Q: For CCCCCSc1nc2c(c(=O)[nH]c(=O)n2C)n1C, which EC50 is on record?
A: The EC50 was > 40 µM (inactive).

Q: Cc1ccc2nc(N3C(=O)C(O)=C(C(=O)c4ccco4)C3c3cccs3)sc2c1 (configuration not stated) was tested. Which EC50 did it give?
A: Its EC50 is > 40 µM (inactive).

Q: For COc1ccc(/C=C(\C#N)C(=O)N2CCOCC2)cc1Br, which EC50 is on record?
A: The EC50 was > 40 µM (inactive).

Q: O=C1CC(c2ccc(F)cc2)CC(O)=C1C=NCCN1CCN(C(=O)Nc2ccccc2)CC1 (configuration not stated) was tested. Which EC50 did it give?
A: Its EC50 is > 40 µM (inactive).

Q: With C=CCn1c(-c2ccc(OC)cc2)csc1=Nc1c(C)n(C)n(-c2ccccc2)c1=O as the molecule, how does the EC50 read?
A: The EC50 was > 40 µM (inactive).

Q: For Cn1nnnc1SCCNCC#Cc1ccccc1, which EC50 is on record?
A: Its EC50 is > 40 µM (inactive).

Q: How did the EC50 turn out when COc1ccc(C(=O)C(CN2CCOCC2)c2ccccc2)cc1F (configuration not stated) was run?
A: Its EC50 is > 40 µM (inactive).

Q: Which EC50 does the source give for CCCCCn1c(=O)c(C(=O)NCc2ccccn2)c(O)c2ccccc21 here?
A: Its EC50 is > 40 µM (inactive).

Q: O=C1/C(=C\c2cccnc2)CN(Cc2ccccc2)C/C1=C\c1cccnc1 was tested. Which EC50 did it give?
A: Its EC50 is > 40 µM (inactive).

Q: Which EC50 does the source give for Cc1cc2c(c(=O)n1CCc1ccccc1)C(c1ccco1)C(C#N)=C(N)O2 (configuration not stated) here?
A: Its EC50 is > 40 µM (inactive).

Q: For O=C1ON=C(c2ccccc2)/C1=C/c1ccc(-c2ccccc2[N+](=O)[O-])o1, which EC50 is on record?
A: Its EC50 is > 40 µM (inactive).

Q: With COc1cc(Br)cc(-c2nc3c(c(=O)[nH]c(=O)n3Cc3ccccc3)n2C)c1O as the molecule, how does the EC50 read?
A: Its EC50 is > 40 µM (inactive).

Q: With CCCCNC(=O)/C(C#N)=C/c1cccnc1 as the molecule, how does the EC50 read?
A: Its EC50 is > 40 µM (inactive).

Q: CN1CCC2(CC1)C(C#N)=C(N)NC(S)=C2C#N was tested. Which EC50 did it give?
A: The EC50 was > 40 µM (inactive).

Q: For O=C1NC(=O)N(CCC2=CCCCC2)C(=O)/C1=C\c1cccs1, which EC50 is on record?
A: The EC50 was > 40 µM (inactive).

Q: How did the EC50 turn out when COC(=O)CCS(=O)(=O)c1nc(-c2ccccc2)cc(C(F)(F)F)n1 was run?
A: Its EC50 is > 40 µM (inactive).

Q: Which EC50 does the source give for COC(=O)c1sc2ncn(-n3c(C)ccc3C)c(=O)c2c1C here?
A: The EC50 was > 40 µM (inactive).

Q: Which EC50 does the source give for COc1ccc(-c2cc(C(F)(F)F)nc(S(C)(=O)=O)n2)cc1 here?
A: The EC50 was > 40 µM (inactive).

Q: With CCOC(=O)Cc1csc(NC(=O)c2c(O)c3ccccc3n(CC(C)C)c2=O)n1 as the molecule, how does the EC50 read?
A: Its EC50 is > 40 µM (inactive).
